Measured values reported in US6270780A, “Cosmetic compositions containing resveratrol” (Chesebrough-Pond's USA Co., division of Conopco, priority 1998, dated 2001).

Tested on: B16 F1 cells
Assay: Melanin production by B16 cells
Type: cell-based
Procedure: B16 F1 cells were purchased from ATCC (Rockville, Md.) Subconfluent B16 cells were seeded in 96 well microtiter plates at a density of 5000 cells/well and cultured overnight in DMEM (Life Technologies, NY) containing 10% Fetal Bovine Serum, 1% penicillin/streptomycin without phenol red) at 37° C. under 5% CO2. After 24 hours, the media was replaced with fresh media containing the treatments. Cells were incubated for 72 hours at which time melanin was visible in the control treatment. Next, the melanin containing media from each well was transferred to a clean 96 well plate and quantified by reading the absorbance at 530 nm using a microplate Spectrophotometer.
For each treatment, the average of four replicate readings was calculated and expressed as percent of the average for the untreated control.
The lower the % melanin value (with a viability value of >50%), the better the skin lightening potential.

For Oc1ccc(/C=C/c2cc(O)cc(O)c2)cc1 [Resveratrol, 3,4'5-stilbenetriol], the activity at 10 µM (Mus musculus, B16-F1, 10 μM, 72 hours) was 80%, the activity at 25 µM (Mus musculus, B16-F1, 25 μM, 72 hours) was 4% and the activity at 50 µM (Mus musculus, B16-F1, 50 μM, 72 hours) was 3.9%. For the same compound, the activity at 100 µM (Mus musculus, B16-F1, 100 μM, 72 hours) was 6.6% and the “melanin production by skin cells” value (all concentrations tested where viability was greater than 50%) was “inhibited melanin production by skin cells”.
